Values of other authors, collected in patent US10934346B2, “Modified T cell comprising a polynucleotide encoding an inducible stimulating molecule comprising MyD88, CD40 and FKBP12” (priority 2014, dated 2021).

Test system: CD40-dependent signaling cascades
Conditions: mouse, in vivo; cited from earlier work

## CC[C@H](C(=O)N1CCCC[C@H]1C(=O)O[C@H](CCc1ccc(OC)c(OC)c1)c1cccc(OCC(=O)NCC(CNC(=O)COc2cccc([C@@H](CCc3ccc(OC)c(OC)c3)OC(=O)[C@@H]3CCCCN3C(=O)[C@@H](CC)c3cc(OC)c(OC)c(OC)c3)c2)CN(C)C)c1)c1cc(OC)c(OC)c(OC)c1 [AP20187]
  induction of signaling in DCs: led to the in vivo induction of CD40-dependent signaling cascades in murine DCs
